Here are results for two molecules from US8673360B2, “Compositions that enable rapid-acting and highly absorptive intranasal administration” (Shin Nippon Biomedical Laboratories, Ltd., priority 2004, dated 2014).

The nature of series [1]: Intranasal administration of oxycodone in cynomolgus monkeys: plasma oxycodone by HPLC, against subcutaneous injection.
Series [2] is described as follows: Intranasal administration of tropisetron in cynomolgus monkeys: plasma tropisetron by HPLC, against intravenous injection. The series is classed as in vivo.
Experimental: A single dose of an intranasal delivery composition was nasally administered to cynomolgus monkeys (body weight: 4.3 to 7.2 kg). Each composition was encapsulated and administered nasally using a device for nasal administration (Bioactis Co. Ltd.).
27.5 mg of tropisetron hydrochloride (equivalent to 25 mg of tropisetron free base) (Sigma), which is an antiemetic agent, and 72.5 mg of crystalline cellulose (Asahi Kasei: Avicel™ PH-F20) were mixed thoroughly in a mortar. The obtained tropisetron composition was prepared and 4.4 mg tropisetron hydrochloride (equivalent to 4.0 mg of tropisetron free base) per head was administered nasally to male cynomolgus monkeys weighing from 6.3 to 7.2 kg (n=3).
The injection was given intravenously to male cynomolgus monkeys weighing 6.9 and 7.2 kg (n=2), at 0.22 mg tropisetron hydrochloride (equivalent to 0.20 mg of tropisetron free base) per kg weight.
The plasma concentration of tropisetron free base after administration was determined by the HPLC method.
The time course of plasma tropisetron concentration after intravenous injection was subjected to a 2-compartment model analysis using the linear least-square method. The area under the theoretical plasma concentration vs. time curve (AUC) was determined based on the theoretical plasma tropisetron concentration calculated.

On to `COc1ccc2c3c1O[C@H]1C(=O)CC[C@@]4(O)[C@@H](C2)N(C)CC[C@]314` [oxycodone], for which the “Time at which the maximum plasma concentration of oxycodone was reached” value in series [1] (intranasal, time course of plasma concentrations) was determined as 20 min. Further, the bioavailability in series [1] (male, cynomolgus, cynomolgus monkey, plasma, other: intranasal, […]) amounted to 71.7%.
With `CN1[C@@H]2CC[C@H]1C[C@@H](OC(=O)c1c[nH]c3ccccc13)C2` [tropisetron], the “Time at which the maximum plasma concentration of tropisetron was achieved” value in series [2] (intranasal, time course of average plasma concentrations) was found to be 5 min. Moreover, in series [2] (male, cynomolgus monkey, plasma, other: intranasal, nasal, 4 mg/body (0.59 mg/kg), compared with intravenous injection, read-out: BA (bioavailability) of tropisetron), the bioavailability was found to be 73.4%.
